Molecular target: NLRP3 (Homo sapiens, UniProt Q96P20)
Experiment: microscale thermophoresis
Assay type: binding

Sequence of NLRP3 (Q96P20 whole entry): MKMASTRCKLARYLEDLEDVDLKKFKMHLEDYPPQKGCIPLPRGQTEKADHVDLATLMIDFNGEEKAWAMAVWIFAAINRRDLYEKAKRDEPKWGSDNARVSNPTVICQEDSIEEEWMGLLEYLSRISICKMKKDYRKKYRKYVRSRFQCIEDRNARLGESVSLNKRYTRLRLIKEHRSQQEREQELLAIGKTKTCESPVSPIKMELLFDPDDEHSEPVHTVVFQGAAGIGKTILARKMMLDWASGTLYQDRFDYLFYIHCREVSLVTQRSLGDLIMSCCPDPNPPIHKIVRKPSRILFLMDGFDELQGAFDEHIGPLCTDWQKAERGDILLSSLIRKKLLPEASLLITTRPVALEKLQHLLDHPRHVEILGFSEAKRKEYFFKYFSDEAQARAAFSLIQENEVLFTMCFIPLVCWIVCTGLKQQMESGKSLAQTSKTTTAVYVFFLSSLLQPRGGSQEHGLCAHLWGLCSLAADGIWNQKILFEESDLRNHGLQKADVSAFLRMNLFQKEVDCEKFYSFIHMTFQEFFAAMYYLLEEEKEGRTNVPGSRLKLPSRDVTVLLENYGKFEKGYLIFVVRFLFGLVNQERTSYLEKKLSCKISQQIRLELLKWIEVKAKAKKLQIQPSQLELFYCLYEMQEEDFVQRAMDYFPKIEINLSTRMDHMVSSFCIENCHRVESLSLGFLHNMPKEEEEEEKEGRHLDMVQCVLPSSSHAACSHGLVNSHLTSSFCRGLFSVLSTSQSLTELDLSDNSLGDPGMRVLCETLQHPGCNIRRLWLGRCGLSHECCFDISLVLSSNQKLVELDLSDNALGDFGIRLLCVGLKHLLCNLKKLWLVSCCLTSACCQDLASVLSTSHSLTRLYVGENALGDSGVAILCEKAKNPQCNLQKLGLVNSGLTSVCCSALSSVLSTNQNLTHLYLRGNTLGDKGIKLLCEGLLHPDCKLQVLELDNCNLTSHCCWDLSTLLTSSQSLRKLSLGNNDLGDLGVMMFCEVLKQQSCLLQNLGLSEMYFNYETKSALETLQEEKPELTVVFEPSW

O=C1NC(=O)[C@@H](c2cn3c4c(cccc24)CCC3)[C@@H]1c1c[nH]c2ccccc12 [Tivantinib]
Kd: ~373 nM

Reference: paper PMC9950949 (iScience, 2023)
